This passage reports IC50 results from patent US12187742B2 (XRAD Therapeutics, Inc., priority 2018, dated 2025).

For this assay, the target named is ATM (Homo sapiens (Human), UniProt Q13315). Kind of assay: ATM in Cell Western Assay (pKAP1 in etoposide-treated MCF-7 cells). The assay is classed as cell-based. Put shortly:
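Cells received compounds in a 10-dose, 3-fold series from a 1 μM final top concentration, then 100 μM etoposide, for 1 hr at 37° C. They were then fixed with paraformaldehyde and permeabilized with 0.1% Triton X-100. After immunostaining, plates were scanned on an infrared imager.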

The mark [1] stands for this setting: pKAP1 in etoposide-treated MCF-7 cells.
[2] abbreviates: MCF-7 cells, etoposide 100 μM, 1 hr, pKAP1 readout.

In general, IC50 refers to the concentration that gives 50% inhibition.

Counter-ions that a name gives are not always drawn.

ATM, sequence (Q13315 whole entry): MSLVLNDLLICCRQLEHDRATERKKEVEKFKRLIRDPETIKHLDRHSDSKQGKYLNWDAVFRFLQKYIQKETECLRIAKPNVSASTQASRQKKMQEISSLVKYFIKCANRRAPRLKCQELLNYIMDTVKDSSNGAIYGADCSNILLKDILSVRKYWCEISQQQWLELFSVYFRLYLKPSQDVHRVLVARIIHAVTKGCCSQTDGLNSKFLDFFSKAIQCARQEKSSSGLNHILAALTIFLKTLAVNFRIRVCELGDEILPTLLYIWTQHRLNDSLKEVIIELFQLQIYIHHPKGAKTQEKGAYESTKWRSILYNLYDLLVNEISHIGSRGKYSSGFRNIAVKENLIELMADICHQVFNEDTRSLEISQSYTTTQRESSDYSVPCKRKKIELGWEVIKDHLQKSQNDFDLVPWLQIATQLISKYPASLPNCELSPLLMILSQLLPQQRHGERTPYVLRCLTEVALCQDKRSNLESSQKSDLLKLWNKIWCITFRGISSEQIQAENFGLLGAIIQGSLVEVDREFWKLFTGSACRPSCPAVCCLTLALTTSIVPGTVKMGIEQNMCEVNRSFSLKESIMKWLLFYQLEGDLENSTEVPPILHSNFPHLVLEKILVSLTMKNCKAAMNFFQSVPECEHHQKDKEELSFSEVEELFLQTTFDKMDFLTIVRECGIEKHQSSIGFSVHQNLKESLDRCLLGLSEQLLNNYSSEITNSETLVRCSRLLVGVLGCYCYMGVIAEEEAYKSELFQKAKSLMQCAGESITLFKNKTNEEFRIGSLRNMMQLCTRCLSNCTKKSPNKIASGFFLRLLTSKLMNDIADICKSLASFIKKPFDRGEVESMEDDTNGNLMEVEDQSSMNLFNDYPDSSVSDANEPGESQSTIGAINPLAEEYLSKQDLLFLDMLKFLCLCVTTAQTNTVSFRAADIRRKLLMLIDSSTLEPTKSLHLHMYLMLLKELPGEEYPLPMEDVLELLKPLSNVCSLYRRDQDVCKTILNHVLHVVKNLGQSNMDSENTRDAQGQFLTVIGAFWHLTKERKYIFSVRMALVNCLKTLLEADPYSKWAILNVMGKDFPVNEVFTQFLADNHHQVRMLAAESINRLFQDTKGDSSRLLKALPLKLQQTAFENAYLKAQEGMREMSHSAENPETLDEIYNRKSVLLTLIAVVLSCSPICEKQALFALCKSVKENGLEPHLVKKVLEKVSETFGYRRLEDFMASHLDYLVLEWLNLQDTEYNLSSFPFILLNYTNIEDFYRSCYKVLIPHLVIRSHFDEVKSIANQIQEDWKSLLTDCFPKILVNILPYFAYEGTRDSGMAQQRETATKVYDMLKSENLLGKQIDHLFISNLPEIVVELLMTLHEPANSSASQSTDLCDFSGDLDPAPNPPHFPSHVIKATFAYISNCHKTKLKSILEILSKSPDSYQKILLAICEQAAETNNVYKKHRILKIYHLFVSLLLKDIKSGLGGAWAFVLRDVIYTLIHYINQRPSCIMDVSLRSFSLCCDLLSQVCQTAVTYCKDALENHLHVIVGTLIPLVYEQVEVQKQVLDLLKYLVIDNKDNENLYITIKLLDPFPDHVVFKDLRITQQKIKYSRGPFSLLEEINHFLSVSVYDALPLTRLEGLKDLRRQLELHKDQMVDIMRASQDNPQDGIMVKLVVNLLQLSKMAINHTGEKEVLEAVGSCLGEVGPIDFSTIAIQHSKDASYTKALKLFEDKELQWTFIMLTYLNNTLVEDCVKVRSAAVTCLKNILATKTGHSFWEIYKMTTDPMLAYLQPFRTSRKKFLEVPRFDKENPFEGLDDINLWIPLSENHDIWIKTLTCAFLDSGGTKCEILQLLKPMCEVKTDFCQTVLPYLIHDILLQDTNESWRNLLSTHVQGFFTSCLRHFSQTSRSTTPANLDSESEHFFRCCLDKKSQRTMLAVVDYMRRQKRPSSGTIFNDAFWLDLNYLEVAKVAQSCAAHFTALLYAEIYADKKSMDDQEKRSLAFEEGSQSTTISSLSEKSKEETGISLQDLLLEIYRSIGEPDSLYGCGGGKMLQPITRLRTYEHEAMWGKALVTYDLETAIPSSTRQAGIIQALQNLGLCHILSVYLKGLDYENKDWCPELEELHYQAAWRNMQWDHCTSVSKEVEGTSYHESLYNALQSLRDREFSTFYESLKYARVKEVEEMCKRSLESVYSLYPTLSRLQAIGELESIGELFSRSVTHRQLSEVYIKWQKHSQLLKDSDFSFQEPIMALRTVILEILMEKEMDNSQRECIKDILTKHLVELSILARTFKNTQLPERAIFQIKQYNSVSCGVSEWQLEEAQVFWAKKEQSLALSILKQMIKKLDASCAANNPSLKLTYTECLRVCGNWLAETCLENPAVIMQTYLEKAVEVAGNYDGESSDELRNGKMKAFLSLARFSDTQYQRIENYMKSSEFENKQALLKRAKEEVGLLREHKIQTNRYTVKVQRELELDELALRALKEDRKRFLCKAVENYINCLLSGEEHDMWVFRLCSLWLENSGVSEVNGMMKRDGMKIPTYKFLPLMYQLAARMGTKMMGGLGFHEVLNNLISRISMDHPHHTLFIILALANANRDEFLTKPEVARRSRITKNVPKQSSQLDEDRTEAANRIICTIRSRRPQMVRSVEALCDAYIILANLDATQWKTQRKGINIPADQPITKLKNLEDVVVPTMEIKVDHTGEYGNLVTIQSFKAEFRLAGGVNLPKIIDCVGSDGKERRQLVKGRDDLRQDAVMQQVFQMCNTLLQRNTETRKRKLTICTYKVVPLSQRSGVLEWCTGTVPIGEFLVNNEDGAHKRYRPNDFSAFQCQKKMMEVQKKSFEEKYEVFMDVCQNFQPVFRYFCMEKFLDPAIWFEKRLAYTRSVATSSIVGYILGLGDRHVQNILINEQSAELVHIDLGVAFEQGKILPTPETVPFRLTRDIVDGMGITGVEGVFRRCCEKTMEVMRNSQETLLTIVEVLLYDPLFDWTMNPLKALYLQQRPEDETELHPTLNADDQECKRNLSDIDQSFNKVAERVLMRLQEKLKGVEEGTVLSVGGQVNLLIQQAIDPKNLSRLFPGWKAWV

As for `CC(C)NCCOc1ncc(-c2cc3c(cc2F)ncc2c3[C@]3(C[C@H](N(C)C)C3)C(=O)N2C)cc1NS(C)(=O)=O` [Example 465, cis-N-(5-(3-(Dimethylamino)-7′-fluoro-3′-methyl-2′-oxo-2′,3′-dihydrospiro[cyclobutane-1,1′-pyrrolo[2,3-c]quinolin]-8′-yl)-2-(2-(isopropylamino)ethoxy)pyridin-3-yl)methanesulfonamide], the IC50 under setting [1] lay within 1 to 100 nM.

Under setting [1], `Cc1cc(S(=O)(=O)Nc2cc(-c3cc4c5c(cnc4cc3F)N(C)C(=O)C53CN(c4ccccc4)C3)cnc2OCCNC(C)C)sn1` [Example 521] gave a half-maximal inhibitory concentration (IC50) of 1 to 100 nM.

As for `CN1C(=O)C2(CCC2)c2c1cnc1cc(F)c(-c3cnc(N4CC(N(C)C)C4)c(NS(=O)(=O)C(F)F)c3)cc21` [Example 341, N-(2-(3-(Dimethylamino)azetidin-1-yl)-5-(7′-fluoro-3′-methyl-2′-oxo-2′,3′-dihydrospiro[cyclobutane-1,1′-pyrrolo[2,3-c]quinolin]-8′-yl)pyridin-3-yl)-1,1′-difluoromethane-sulfonamide formate], the IC50 under setting [1] is over 100 nM.

For `CCN1C(=O)C2(CCC2)c2c1cnc1ccc(-c3cnc(OCCNC)c(NS(C)(=O)=O)c3)cc21` [Example 308, N-(5-(3′-Ethyl-2′-oxo-2′,3′-dihydrospiro[cyclobutane-1,1′-pyrrolo[2,3-c]quinolin]-8′-yl)-2-(2-(methylamino)ethoxy)pyridin-3-yl) methanesulfonamide hydrochloride], under setting [2], the IC50 is 1 to 100 nM.

As for `CN1C(=O)C2(CCC2)c2c1cnc1cc(F)c(-c3cnc(OCCNCC(F)F)c(NS(C)(=O)=O)c3)cc21` [Example 379, N-(2-(2-((2,2-Difluoroethyl)amino)ethoxy)-5-(7fluoro-3′-methyl-2′-oxo-2′,3′-dihydrospiro[cyclobutane-1,1′-pyrrole[2,3-c]quinolin]-8′-yl)pyridin-3-yl) methanesulfonamide], the IC50 under setting [1] was over 100 nM.

In turn, `CN(C)CCCOc1ncc(-c2ccc3ncc4c(c3c2)C2(CCC2)C(=O)N4C)cc1NS(=O)(=O)c1cc[nH]c(=O)c1` [Example 161, N-(2-(3-(Dimethylamino)propoxy)-5-(3′-methyl-2′-oxo-2′,3′-dihydrospiro[cyclobulane-1,1′-pyrrolo[2,3-c]quinolin]-8′-yl)pyridin-3-yl)-2-oxo-1,2-dihydropyridine-4-sulfonamide] came in with an IC50 under setting [2] of 1 to 100 nM.

For the compound `CCN(C)C1CN(c2ncc(-c3cc4c5c(cnc4cc3F)N(C)C(=O)C53CCC3)cc2NS(C)(=O)=O)C1` [Example 313, N-(2-(3-(Ethyl(methyl)amino)azetidin-1-yl)-5-(7′-fluoro-3′-methyl-2′-oxo-2′,3′-dihydrospiro[cyclobutane-1,1′-pyrrolo[2,3-c]quinolin]-8′-yl)pyridin-3-yl)methanesulfonamide hydrochloride], under setting [2], the IC50 is 1 to 100 nM.

For `CN1C(=O)C2(CCC2)c2c1cnc1cc(F)c(-c3cnc(OCCNCCF)c(NS(C)(=O)=O)c3)cc21` [Example 380, N-(5-(7′-Fluoro-3′-methyl-2′-oxo-2′,3′-dihydrospiro [cyclobutane-1,1′-pyrrolo[2.3-c]quinolin]-8′-yl)-2-(2-((2-fluoroethyl)amino)ethoxy)pyridin-3-yl) methanesulfonamide hydrochloride], the half-inhibitory concentration (IC50) under setting [1] was in the range of 1 to 100 nM.

As to `CC(C)NCCOc1ncc(-c2cc3c(cc2F)ncc2c3[C@]3(C[C@@H](N4CCCCC4)C3)C(=O)N2C)cc1NS(C)(=O)=O` [Example 470, trans-N-{5-(7′-Fluoro-3′-methyl-2′-oxo-3-(piperidin-1-yl)-2′,3′-dihydrospiro[cyclobutane-1,1′-pyrrolo[2,3-c]quinolin]-8′-yl)-2-(2-(isopropylamino)ethoxy)pyridin-3-yl)methanesulfonamide hydrochloride], the IC50 under setting [1] was 1 to 100 nM.

The compound `CC(C)NCCOc1ncc(-c2cc3c4c(cnc3cc2F)N(C)C(=O)C42CN(c3nn[nH]n3)C2)cc1NS(C)(=O)=O` [Example 550, N-(5-(7′-Fluoro-3′-methyl-2′-oxo-1-(2H-tetrazol-5-yl)-2′,3′-dihydrospiro [azetidine-3,1′-pyrrolo[2,3-c]quinolin]-8′-yl)-2-(2-(isopropylamino)ethoxy)pyridin-3-yl)methanesulfonamide] had an IC50 under setting [1] of over 100 nM.

`CN1C(=O)C2(CCC2)c2c1cnc1cc(F)c(-c3cnc(OCCNC4CC4)c(NS(C)(=O)=O)c3)cc21` [Example 376, N-(2-(2-(Cyclopropylamino)ethoxy)-5-(7′-fluoro-3′-methyl-2′-oxo-2′,3′-dihydrospiro[cyclobutane-1,1′-pyrrolo[2,3-c]quinolin]-8′-yl)pyridin-3-yl)methanesulfonamide hydrochloride]: the IC50 under setting [1] lay within 1 to 100 nM.

For `CN1C(=O)C2(CCC2)c2c1cnc1ccc(-c3cnc(N4CC(N5CCCCC5)C4)c(NS(C)(=O)=O)c3)cc21` [Example 321, N-(5-(3′-Methyl-2′-oxo-2′,3′-dihydrospiro[cyclobulane-1,1′-pyrrolo[2,3-c]quinolin]-8′-yl)-2-(3-(piperidin-1-yl)azetidin-1-yl)pyridin-3-yl)methanesulfonamide hydrochloride], the IC50 under setting [2] lay within 1 to 100 nM.

As to `CNS(=O)(=O)c1cc(-c2ccc3ncc4c(c3c2)C2(CCC2)C(=O)N4C)cnc1OCCCN(C)C` [Example 267, 2-(3-(Dimethylamino)propoxy)-N-methyl-5-(3′-methyl-2′-oxo-2′,3′-dihydrospiro[cyclobutane-1,1′-pyrrolo[2,3-c]quinolin]-8′-yl) pyridine-3-sulfonamide], the IC50 under setting [2] lay within 1 to 100 nM.

Compound `CN1CC=C(c2ncc(-c3ccc4ncc5c(c4c3)C3(CCC3)C(=O)N5C)cc2NS(C)(=O)=O)CC1` [Example 276, N-(1′-Methyl-5-(3′-methyl-2-oxo-2′,3′-dihydrospiro[cyclobutane-1,1′-pyrrolo[2,3-c]quinolin]-8′-yl)-1′,2′,3′,6′-tetrahydro-[2,4′-bipyridin]-3-yl)methanesulfonamide] came in with a half-maximal inhibitory concentration (IC50) under setting [2] of 1 to 100 nM.

In the case of `CN(C)CCCOc1ncc(-c2ccc3ncc4c(c3c2)C2(CC2)C(=O)N4C)cc1C(N)=O` [Example 52, 2-(3-(Dimethylamino)propoxy)-5-(3′-methyl-2′-oxo-2′,3′-dihydrospiro[cyclopropane-1,1′-pyrrolo[2,3-c]quinolin]-8′-yl)nicotinamide], the IC50 under setting [2] was over 100 nM.

Consider `CN1C(=O)C2(CCC2)c2c1cnc1ccc(-c3cnc(N4CC5CC(C4)N5C(=O)OC(C)(C)C)c(NS(C)(=O)=O)c3)cc21` [Example 359, tert-Butyl 3-(5-(3′-methyl-2′-oxo-2′,3′-dihydrospiro [cyclobutane-1,1′-pyrrolo[2,3-c]quinolin]-8′-yl)-3-(methylsulfonamido)pyridin-2-yl)-3,6-diazabicydo[3.1.1] heptane-6-carboxylate], for which, under setting [1], the IC50 was over 100 nM.

On to `CC(C)NCCOc1ncc(-c2cc3c4c(cnc3cc2F)N(C)C(=O)C42CN(c3cccnc3)C2)cc1NS(C)(=O)=O` [Example 548, N-(5-(7′-Fluoro-3′-methyl-2′-oxo-1-(pyridin-3-yl)-2′,3′-dihydrospiro [azetidine-3,1′-pyrrolo[2,3-c]quinolin]-8′-yl)-2-(2-(isopropylamino)ethoxy)pyridin-3-yl)methanesulfonamide hydrochloride], for which the IC50 under setting [1] fell in the range of 1 to 100 nM.

As to `CCCN1CC2(C1)C(=O)N(C)c1cnc3cc(F)c(-c4cnc(OCCNC(C)C)c(NS(C)(=O)=O)c4)cc3c12` [Example 488, N-(5-(7′-Fluoro-3′-methyl-2′-oxo-1-propyl-2′,3′-dihydrospiro[azetidine-3,1′-pyrrolo[2,3-c]quinolin]-8′-yl)-2-(2-(isopropylamino)ethoxy)pyridin-3-yl)methanesulfonamide], the IC50 under setting [1] is 1 to 100 nM.

`CN1C(=O)C2(CC2)c2c1cnc1ccc(-c3ccc4c(ccc(=O)n4C)c3)cc21` [Example 45, 3′-Methyl-8′-(1-methyl-2-oxo-1,2-dihydroquinolin-6-yl)spiro[cyclopropane-1,1′-pyrrolo[2,3-c]quinolin]-2′(3′-H)-one] gave an IC50 under setting [2] of over 100 nM.

Under setting [1], `CC(C)NCCOc1ncc(-c2cc3c(cc2F)ncc2c3[C@]3(C[C@H](c4ccc(F)cc4)C3)C(=O)N2C)cc1NS(C)(=O)=O` [Example 422, cis-N-(5-(7′-Fluoro-3-(4-fluorophenyl)-3′-methyl-2′-oxo-2′,3′-dihydrospiro[cyclobutane-1,1′-pyrrolo[2,3-c]quinolin]-8′-yl)-2-(2-(isopropylamino)ethoxy)pyridin-3-yl)methanesulfonamide] displayed an IC50 of 1 to 100 nM.

`CC(C)NCCOc1ncc(-c2cc3c4c(cnc3cc2F)N(C)C(=O)C42CN([C@H]3CC[C@@H](O)CC3)C2)cc1NS(C)(=O)=O` [Example 504, N-(5-(7′-Fluoro-1-(cis-4-hydroxycyclohexyl)-3′-methyl-2′-oxo-2′,3′-dihydrospiro[azetidine-3,1′-pyrrolo[2,3-c]quinolin]-8′-yl)-2-(2-(isopropylamino)ethoxy)pyridin-3-yl)methanesulfonamide] yielded an IC50 under setting [1] of over 100 nM.

The compound `CN1C(=O)C2(CCC2)c2c1cnc1cc(F)c(-c3cnc(N4CC(N(C)C)C4)c(NS(=O)(=O)N4CCOCC4)c3)cc21` [Example 312, N-(2-(3-(Dimethylamino)azetidin-1-yl)-5-(7′-fluoro-3′-methyl-2′-oxo-2′,3′-dihydrospiro[cyclobutane-1,1′-pyrrolo[2,3-c]quinolin]-8′-yl)pyridin-3-yl)morpholine-4-sulfonamide hydrochloride] returned an IC50 under setting [2] of 1 to 100 nM.

As to `CC(C)NCCOc1ncc(-c2cc3c4c(cnc3cc2F)N(C)C(=O)C42CN(CCO)C2)cc1NS(C)(=O)=O` [Example 506, N-(5-(7′-Fluoro-1-(2-hydroxyethyl)-3′-methyl-2′-oxo-2′,3′-dihydrospiro[azetidine-3,1′-pyrrolo[2,3-c]quinolin]-8′-yl)-2-(2-(isopropylamino)ethoxy)pyridin-3-yl)methanesulfonamide], under setting [1], the concentration for half-maximal inhibition (IC50) was in the range of 1 to 100 nM.
